IC50 data for 26 compounds are collected here from patent US20240002391A1, “4-ALKOXYPYRROLO[2,1-F][1,2,4]TRIAZINES AND PREPARATION AND USES THEREOF” (BioSplice Therapeutics, Inc., priority 2022, published 2024).

In this experiment the target is recombinant DYRK1A kinase (Homo sapiens (Human), UniProt Q13627). Kind of experiment: DYRK1A kinase assay (Ser/Thr 18 peptide Z-lyte FRET). The class given is biochemical. The settings on record: DYRK1A kinase activity, Z-lyte Ser/Thr 18 peptide, 15 μM ATP; method text calls the value IC50; read-out: EC50 (the source's name). The method, then: Representative compounds were screened using the assay procedure for DYRK1A kinase activity as described below.
Each compound was dissolved in DMSO as a 10 mM stock and used to prepare compound source plates. Serial dilution (1:3, 11-point dose-response curves from 10 μM to 0.00016 μM) and compound transfer was performed using the ECHO 550 (Labcyte, Sunnyvale, CA) into 1536-well black-walled round bottom plates (Coming).
The DYRK1A kinase assay was run using the Ser/Thr 18 peptide Z-lyte assay kit according to manufacturer's instructions (Life Technologies-a Division of Thermo-Fisher). This is a non-radioactive assay using fluorescence resonance energy transfer (FRET) between coumarin and fluorescein to detect kinase activity which is represented as a ratio of coumarin emission/fluorescein emission.
Briefly, recombinant DYRK1A kinase, ATP and Ser/Thr peptide 18 were prepared in 1X Kinase buffer to final concentrations of 0.25 μg/mL, 15 μM, and 4 μM respectively. The mixture was allowed to incubate with the representative compounds for one hour at room temperature. All reactions were performed in duplicate. Unphosphorylated (“0% Control”) and phosphorylated (“100% control”) forms of Ser/Thr 18 served as control reactions. Additionally, an 11-point dose-response curve of Staurosporine (luM top) was run to serve as a positive compound control.
After incubation, Development Reagent A was diluted in Development Buffer then added to the reaction and allowed to further incubate for one hour at room temperature. The plate was read at Ex 400 Em 455 to detect the coumarin signal and Ex 400 Em 520 to measure the signal (EnVision Multilabel Plate Reader, PerkinElmer).
The Emission ratio (Em) was calculated as a ratio of the coumarin (C) emission signal (at 445 nm)/Fluorescein (F) emission signal (at 520 nm). The percent phosphorylation was then calculated using the following formula: [1−((Em ratio X F100%)-C100%)/((C0%-C100%) +(Em ratio X (F100%−F0%)))]. Dose-response curves were generated, and inhibitory concentration (IC50) values were calculated using non-linear regression curve fit in the Dotmatics' Studies Software (Bishops Stortford, UK).

`COc1nc(NC2CCN(CC(F)F)CC2)nn2ccc(-c3ccc4nccnc4c3)c12` [Compound 362, N-(1-(2,2-Difluoroethyl)piperidin-4-yl)-4-methoxy-5-(quinoxalin-6-yl)pyrrolo[2,1-f][1,2,4]triazin-2-amine]: the IC50 worked out at 6 nM.

For `COc1nc(N[C@H]2CC[C@]3(CCO3)CC2)nn2ccc(-c3cnc4nccn4c3)c12` [Compound 274, 5-(Imidazo[1,2-a]pyrimidin-6-yl)-4-methoxy-N-((4s,7s)-1-oxaspiro[3.5]nonan-7-yl)pyrrolo[2,1-f][1,2,4]triazin-2-amine], the IC50 is 1 nM.

For the compound `COc1nc(N[C@H]2CCN(C(C)=O)C[C@H]2F)nn2ccc(-c3ccc4ncccc4c3)c12` [Compound 1047, 1-((3R,4S)-3-Fluoro-4-((4-methoxy-5-(quinolin-6-yl)pyrrolo[2,1-f][1,2,4]triazin-2-yl)amino)piperidin-1-yl)ethan-1-one], the IC50 came to 2.1 nM.

Turning to `COc1nc(NC2CCC(=O)N(C)C2)nn2ccc(-c3ccc4nnn(/C=C/F)c4c3)c12` (centres unmarked) [Compound 673, (E)-5-((5-(1-(2-Fluorovinyl)-1H-benzo[d][1,2,3]triazol-6-yl)-4-methoxypyrrolo[2,1-f][1,2,4]triazin-2-yl)amino)-1-methylpiperidin-2-one], the IC50 came out at 5.3 nM.

For the compound `COc1nc(N[C@H]2C[C@@](C)(N)C2)nn2ccc(-c3ccc4nccnc4c3)c12` [Compound 332, cis-N1-(4-Methoxy-5-(quinoxalin-6-yl)pyrrolo[2,1-f][1,2,4]triazin-2-yl)-3-methylcyclobutane-1,3-diamine], the IC50 came out at 2.8 nM.

For `COc1nc(N[C@@H]2CCCOC2)nn2ccc(-c3cnc4nccn4c3)c12` [Compound 975, (R)-5-(Imidazo[1,2-a]pyrimidin-6-yl)-4-methoxy-N-(tetrahydro-2H-pyran-3-yl)pyrrolo[2,1-f][1,2,4]triazin-2-amine], the IC50 stood at 7.6 nM.

On to `COc1nc(NC2CCOCC2)nn2ccc(-c3ccn4nccc4c3)c12` [Compound 36, 4-Methoxy-5-(pyrazolo[1,5-a]pyridin-5-yl)-N-(tetrahydro-2H-pyran-4-yl)pyrrolo[2,1-f][1,2,4]triazin-2-amine], for which the IC50 was determined as 12.1 nM.

With `COc1nc(N[C@H]2CCN(C3COC3)C[C@H]2F)nn2ccc(-c3cc(F)c4nc(C)n(C(C)C)c4c3)c12` [Compound 1142, N-((3R,4S)-3-Fluoro-1-(oxetan-3-yl)piperidin-4-yl)-5-(4-fluoro-1-isopropyl-2-methyl-1H-benzo[d]imidazol-6-yl)-4-methoxypyrrolo[2,1-f][1,2,4]triazin-2-amine], the IC50 amounted to 2.3 nM.

As to `CCN1CC[C@@H](Nc2nc(OC)c3c(-c4ccc5nccnc5c4)ccn3n2)C(F)(F)C1` [Compound 1095, (R)—N-(1-Ethyl-3,3-difluoropiperidin-4-yl)-4-methoxy-5-(quinoxalin-6-yl)pyrrolo[2,1-f][1,2,4]triazin-2-amine], the IC50 turned out to be 4 nM.

As for `COc1nc(N[C@H]2CCN(C(C)=O)C[C@H]2F)nn2ccc(-c3ccc4nnn(C(C)C)c4c3)c12` [Compound 686, 1-((3R,4S)-3-Fluoro-4-((5-(1-isopropyl-1H-benzo[d][1,2,3]triazol-6-yl)-4-methoxypyrrolo[2,1-f][1,2,4]triazin-2-yl)amino)piperidin-1-yl)ethan-1-one], the IC50 came out at 3.4 nM.

As for “N-(cis-4-((4-Methoxy-5-(quinolin-6-yl)pyrrolo[2,1-f][1,2,4]triazin-2-yl) amino)cyclohexyl)acetamide [Compound 1044]”, the IC50 is 3.2 nM.

In the case of `CC[C@]1(O)CC[C@H](Nc2nc(OC)c3c(-c4cc(F)c5nccn5c4)ccn3n2)CC1` [Compound 433, (1r,4r)-1-Ethyl-4-((5-(8-fluoroimidazo[1,2-a]pyridin-6-yl)-4-methoxypyrrolo[2,1-f][1,2,4]triazin-2-yl)amino)cyclohexan-1-ol], the IC50 was 2.6 nM.

In the case of `COc1nc(N[C@H]2C[C@@](C)(O)C2)nn2ccc(-c3ccc4nc(C)n(CCO)c4c3)c12` [Compound 169, cis-3-((5-(1-(2-Hydroxyethyl)-2-methyl-1H-benzo[d]imidazol-6-yl)-4-methoxypyrrolo[2,1-f][1,2,4]triazin-2-yl)amino)-1-methylcyclobutan-1-ol], the IC50 came out at 2.1 nM.

For `COc1nc(N[C@@H]2CCN(C3COC3)C[C@H]2F)nn2ccc(-c3cc(F)c4nc(C)n(CC(F)F)c4c3)c12` [Compound 159, 5-(1-(2,2-Difluoroethyl)-4-fluoro-2-methyl-1H-benzo[d]imidazol-6-yl)-N-((3R,4R)-3-fluoro-1-(oxetan-3-yl)piperidin-4-yl)-4-methoxypyrrolo[2,1-f][1,2,4]triazin-2-amine], the IC50 amounted to 2.9 nM.

`COc1nc(N[C@H]2C[C@](C)(NC(C)=O)C2)nn2cc(F)c(-c3ccc4ncnn4c3)c12` [Compound 585, N-((1r,3r)-3-((5-([1,2,4]Triazolo[1,5-a]pyridin-6-yl)-6-fluoro-4-methoxypyrrolo[2,1-f][1,2,4]triazin-2-yl)amino)-1-methylcyclobutyl)acetamide]: the IC50 stood at 2.2 nM.

Regarding `COc1nc(N[C@H]2CC[C@](C)(O)CC2)nn2ccc(-c3ccc4ncn(CC(F)F)c4c3)c12` [Compound 1139, (1r,4r)-4-((5-(1-(2,2-Difluoroethyl)-1H-benzo[d]imidazol-6-yl)-4-methoxypyrrolo[2,1-f][1,2,4]triazin-2-yl)amino)-1-methylcyclohexan-1-ol], the IC50 turned out to be 0.5 nM.

As for `COc1nc(N[C@H]2CCN(CCF)C[C@H]2F)nn2ccc(-c3ccc4nccnc4c3)c12` [Compound 372, N-((3R,4S)-3-Fluoro-1-(2-fluoroethyl)piperidin-4-yl)-4-methoxy-5-(quinoxalin-6-yl)pyrrolo[2,1-f][1,2,4]triazin-2-amine], the IC50 amounted to 4.1 nM.

For the compound `COc1nc(N[C@@H]2CCN(C3COC3)CC2(F)F)nn2ccc(-c3ccc4nnn(CCF)c4c3)c12` [Compound 670, (R)—N-(3,3-Difluoro-1-(oxetan-3-yl)piperidin-4-yl)-5-(1-(2-fluoroethyl)-1H-benzo[d][1,2,3]triazol-6-yl)-4-methoxypyrrolo[2,1-f][1,2,4]triazin-2-amine], the IC50 was 0.8 nM.

As for `COc1nc(NC2CCOCC2)nn2ccc(-c3ccc4nccnc4c3)c12` [Compound 366, 4-Methoxy-5-(quinoxalin-6-yl)-N-(tetrahydro-2H-pyran-4-yl)pyrrolo[2,1-f][1,2,4]triazin-2-amine], the IC50 stood at 2.5 nM.

Take `COc1nc(N[C@H]2CN(C3COC3)C[C@H]2F)nn2ccc(-c3ccc4nc(C)n(CC(F)F)c4c3)c12` [Compound 505, 5-(1-(2,2-Difluoroethyl)-2-methyl-1H-benzo[d]imidazol-6-yl)-N-((3S,4R)-4-fluoro-1-(oxetan-3-yl)pyrrolidin-3-yl)-4-methoxypyrrolo[2,1-f][1,2,4]triazin-2-amine]: the IC50 was determined as 3.8 nM.

As to `C[C@]1(O)CC[C@H](Nc2nc(OCC(F)F)c3c(-c4ccc5ncnn5c4)ccn3n2)CC1` [Compound 616, (1r,4r)-4-((5-([1,2,4]Triazolo[1,5-a]pyridin-6-yl)-4-(2,2-difluoroethoxy)pyrrolo [2,1-f][1,2,4]triazin-2-yl)amino)-1-methylcyclohexan-1-ol], the IC50 amounted to 2.9 nM.

For `COc1nc(N[C@H]2C[C@@](C)(C(=O)N(C)C)C2)nn2ccc(-c3ccc4nnn(C)c4c3)c12` [Compound 211, cis-3-((4-Methoxy-5-(1-methyl-1H-benzo[d][1,2,3]triazol-6-yl)pyrrolo[2,1-f][1,2,4]triazin-2-yl)amino)-N,N,1-trimethylcyclobutane-1-carboxamide], the IC50 was 6.6 nM.

For `COCCO[C@H]1CC[C@@H](Nc2nc(OC)c3c(-c4ccc5nccn5c4)ccn3n2)CC1` [Compound 51, 5-(Imidazo[1,2-a]pyridin-6-yl)-4-methoxy-N-(cis-4-(2-methoxyethoxy)cyclohexyl)pyrrolo[2,1-f][1,2,4]triazin-2-amine], the IC50 was found to be 6.7 nM.

Take `COc1nc(N[C@H]2CC[C@@]3(CCO3)CC2)nn2ccc(-c3cnc4nccn4c3)c12` [Compound 275, 5-(Imidazo[1,2-a]pyrimidin-6-yl)-4-methoxy-N-((4r,7r)-1-oxaspiro[3.5]nonan-7-yl)pyrrolo[2,1-f][1,2,4]triazin-2-amine]: the IC50 is 3.4 nM.

Regarding `COc1nc(N[C@H]2CC[C@@H](OC(F)(F)F)CC2)nn2ccc(-c3cnc4nccn4c3)c12` [Compound 252, 5-(Imidazo[1,2-a]pyrimidin-6-yl)-4-methoxy-N-(cis-4-(trifluoromethoxy)cyclohexyl)pyrrolo[2,1-f][1,2,4]triazin-2-amine], the IC50 was determined as 2.5 nM.

Consider `COc1nc(N[C@H]2CC[C@](C)(O)CC2)nn2ccc(-c3ccc4nncn4c3)c12` [Compound 187, trans-4-((5-([1,2,4]Triazolo[4,3-a]pyridin-6-yl)-4-methoxypyrrolo[2,1-f][1,2,4]triazin-2-yl)amino)-1-methylcyclohexan-1-ol], for which the IC50 is 100 nM.
